Measured values taken from ChEMBL document CHEMBL3885881, “DrugMatrix”.

Species: Rattus norvegicus
Assay: DrugMatrix - Regimen: Daily Repeat
Format: toxicity, organism-based, Sprague-Dawley
Parameters: regimen Daily Repeat, gender Male, age 6-8 weeks
Conditions: in vivo, po, route oral GAVAGE, vehicle .5 % CMC; for ABSOLUTE BASOPHIL / ABSOLUTE EOSINOPHIL / ABSOLUTE LYMPHOCYTE / ABSOLUTE MONOCYTE / ABSOLUTE SEGMENTED NEUTROPHIL / BASOPHIL / EOSINOPHIL / ERYTHROCYTE COUNT / HEMATOCRIT / HEMOGLOBIN / LEUKOCYTE COUNT / LYMPHOCYTE / MEAN CORPUSCULAR HEMOGLOBIN / MEAN CORPUSCULAR HEMOGLOBIN CONCENTRATION / MEAN CORPUSCULAR VOLUME / MONOCYTE / NEUTROPHIL / NUCLEATED RED BLOOD CELLS / PLATELET COUNT: tissue Blood; for ALANINE AMINOTRANSFERASE / ALBUMIN / ALKALINE PHOSPHATASE / ASPARTATE AMINOTRANSFERASE / BLOOD UREA NITROGEN / CARBON DIOXIDE / CHLORIDE / CHOLESTEROL / CREATINE PHOSPHOKINASE / CREATININE / GLUCOSE / LACTATE DEHYDROGENASE / LIPASE / PHOSPHORUS / POTASSIUM / SODIUM / TOTAL BILIRUBIN / TOTAL PROTEIN / URIC ACID: tissue Plasma
[1] = 34 mg/kg, 72 h, dose level Low, time 3 day
[2] = 34 mg/kg, 120 h, dose level Low, time 5 day
[3] = 364 mg/kg, 72 h, dose level High, time 3 day
[4] = 364 mg/kg, 120 h, dose level High, time 5 day

Cc1cccc(Nc2cc(Cl)nc(SCC(=O)O)n2)c1C [PIRINIXIC ACID]
ABSOLUTE BASOPHIL [1]: 0 CELLS/uL
ABSOLUTE EOSINOPHIL [1]: 24.33 CELLS/uL
ABSOLUTE LYMPHOCYTE [1]: 9231.67 CELLS/uL
ABSOLUTE MONOCYTE [1]: 145 CELLS/uL
ABSOLUTE SEGMENTED NEUTROPHIL [1]: 1199 CELLS/uL
BASOPHIL [1]: 0%
EOSINOPHIL [1]: 0.33%
ERYTHROCYTE COUNT [1]: 5.01 x10E6/uL
HEMATOCRIT [1]: 31.77%
HEMOGLOBIN [1]: 11.67 G/DL
LEUKOCYTE COUNT [1]: 10.6 x10E3/uL
LYMPHOCYTE [1]: 85.67%
MEAN CORPUSCULAR HEMOGLOBIN [1]: 23.3 pg
MEAN CORPUSCULAR HEMOGLOBIN CONCENTRATION [1]: 36.7 G/DL
MEAN CORPUSCULAR VOLUME [1]: 63.5 fL
MONOCYTE [1]: 1.67%
NEUTROPHIL [1]: 12.33%
NUCLEATED RED BLOOD CELLS [1]: 0 /100WBC
PLATELET COUNT [1]: 1123.33 x10E3/uL
ALANINE AMINOTRANSFERASE [1]: 55.67 u/L
ALBUMIN [1]: 4.73 G/DL
ALKALINE PHOSPHATASE [1]: 457.33 u/L
ASPARTATE AMINOTRANSFERASE [1]: 87.33 u/L
BLOOD UREA NITROGEN [1]: 13.33 mg/dL
CARBON DIOXIDE [1]: 36.67 mmol/L
CHLORIDE [1]: 100.33 MEQ/L
CHOLESTEROL [1]: 52.67 mg/dL
CREATINE PHOSPHOKINASE [1]: 447.33 u/L
CREATININE [1]: 0.17 mg/dL
GLUCOSE [1]: 140 mg/dL
LACTATE DEHYDROGENASE [1]: 140 u/L
LIPASE [1]: 8 u/L
PHOSPHORUS [1]: 12.6 mg/dL
POTASSIUM [1]: 6.61 MEQ/L
SODIUM [1]: 143.77 MEQ/L
TOTAL BILIRUBIN [1]: 0.1 mg/dL
TOTAL PROTEIN [1]: 5.83 G/DL
URIC ACID [1]: 0.87 mg/dL
ABSOLUTE BASOPHIL [2]: 0 CELLS/uL
ABSOLUTE EOSINOPHIL [2]: 0 CELLS/uL
ABSOLUTE LYMPHOCYTE [2]: 7298 CELLS/uL
ABSOLUTE MONOCYTE [2]: 306 CELLS/uL
ABSOLUTE SEGMENTED NEUTROPHIL [2]: 1029.33 CELLS/uL
BASOPHIL [2]: 0%
EOSINOPHIL [2]: 0%
ERYTHROCYTE COUNT [2]: 5.39 x10E6/uL
HEMATOCRIT [2]: 34.73%
HEMOGLOBIN [2]: 13.23 G/DL
LEUKOCYTE COUNT [2]: 8.63 x10E3/uL
LYMPHOCYTE [2]: 84.33%
MEAN CORPUSCULAR HEMOGLOBIN [2]: 24.57 pg
MEAN CORPUSCULAR HEMOGLOBIN CONCENTRATION [2]: 38.13 G/DL
MEAN CORPUSCULAR VOLUME [2]: 64.5 fL
MONOCYTE [2]: 3.67%
NEUTROPHIL [2]: 12%
NUCLEATED RED BLOOD CELLS [2]: 0 /100WBC
PLATELET COUNT [2]: 1176.33 x10E3/uL
ALANINE AMINOTRANSFERASE [2]: 55 u/L
ALBUMIN [2]: 4.63 G/DL
ALKALINE PHOSPHATASE [2]: 445.33 u/L
ASPARTATE AMINOTRANSFERASE [2]: 92.67 u/L
BLOOD UREA NITROGEN [2]: 10 mg/dL
CARBON DIOXIDE [2]: 27.67 mmol/L
CHLORIDE [2]: 105 MEQ/L
CHOLESTEROL [2]: 39.67 mg/dL
CREATINE PHOSPHOKINASE [2]: 609.67 u/L
CREATININE [2]: 0.19 mg/dL
GLUCOSE [2]: 179 mg/dL
LACTATE DEHYDROGENASE [2]: 166.33 u/L
LIPASE [2]: 9.33 u/L
PHOSPHORUS [2]: 13.63 mg/dL
POTASSIUM [2]: 5.28 MEQ/L
SODIUM [2]: 147.67 MEQ/L
TOTAL BILIRUBIN [2]: 0.0333 mg/dL
TOTAL PROTEIN [2]: 6.17 G/DL
URIC ACID [2]: 1.6 mg/dL
ABSOLUTE BASOPHIL [3]: 0 CELLS/uL
ABSOLUTE EOSINOPHIL [3]: 0 CELLS/uL
ABSOLUTE LYMPHOCYTE [3]: 6159.33 CELLS/uL
ABSOLUTE MONOCYTE [3]: 64.67 CELLS/uL
ABSOLUTE SEGMENTED NEUTROPHIL [3]: 442.67 CELLS/uL
BASOPHIL [3]: 0%
EOSINOPHIL [3]: 0%
ERYTHROCYTE COUNT [3]: 5.12 x10E6/uL
HEMATOCRIT [3]: 32.3%
HEMOGLOBIN [3]: 11.83 G/DL
LEUKOCYTE COUNT [3]: 6.67 x10E3/uL
LYMPHOCYTE [3]: 92.33%
MEAN CORPUSCULAR HEMOGLOBIN [3]: 23.17 pg
MEAN CORPUSCULAR HEMOGLOBIN CONCENTRATION [3]: 36.63 G/DL
MEAN CORPUSCULAR VOLUME [3]: 63.17 fL
MONOCYTE [3]: 1%
NEUTROPHIL [3]: 6.67%
NUCLEATED RED BLOOD CELLS [3]: 0 /100WBC
PLATELET COUNT [3]: 1033.67 x10E3/uL
ALANINE AMINOTRANSFERASE [3]: 53.33 u/L
ALBUMIN [3]: 4.73 G/DL
ALKALINE PHOSPHATASE [3]: 564 u/L
ASPARTATE AMINOTRANSFERASE [3]: 87 u/L
BLOOD UREA NITROGEN [3]: 12.67 mg/dL
CARBON DIOXIDE [3]: 35.33 mmol/L
CHLORIDE [3]: 102.33 MEQ/L
CHOLESTEROL [3]: 49.67 mg/dL
CREATINE PHOSPHOKINASE [3]: 282.33 u/L
CREATININE [3]: 0.2 mg/dL
GLUCOSE [3]: 142.33 mg/dL
LACTATE DEHYDROGENASE [3]: 143.67 u/L
LIPASE [3]: 8.67 u/L
PHOSPHORUS [3]: 12.8 mg/dL
POTASSIUM [3]: 6.58 MEQ/L
SODIUM [3]: 147.03 MEQ/L
TOTAL BILIRUBIN [3]: 0.1 mg/dL
TOTAL PROTEIN [3]: 5.67 G/DL
URIC ACID [3]: 1 mg/dL
ABSOLUTE BASOPHIL [4]: 0 CELLS/uL
ABSOLUTE EOSINOPHIL [4]: 0 CELLS/uL
ABSOLUTE LYMPHOCYTE [4]: 6969 CELLS/uL
ABSOLUTE MONOCYTE [4]: 193.33 CELLS/uL
ABSOLUTE SEGMENTED NEUTROPHIL [4]: 904.33 CELLS/uL
BASOPHIL [4]: 0%
EOSINOPHIL [4]: 0%
ERYTHROCYTE COUNT [4]: 5.24 x10E6/uL
HEMATOCRIT [4]: 32.1%
HEMOGLOBIN [4]: 12.47 G/DL
LEUKOCYTE COUNT [4]: 8.07 x10E3/uL
LYMPHOCYTE [4]: 87.33%
MEAN CORPUSCULAR HEMOGLOBIN [4]: 23.8 pg
MEAN CORPUSCULAR HEMOGLOBIN CONCENTRATION [4]: 38.8 G/DL
MEAN CORPUSCULAR VOLUME [4]: 61.27 fL
MONOCYTE [4]: 2.33%
NEUTROPHIL [4]: 10.33%
NUCLEATED RED BLOOD CELLS [4]: 0 /100WBC
PLATELET COUNT [4]: 1189 x10E3/uL
ALANINE AMINOTRANSFERASE [4]: 57 u/L
ALBUMIN [4]: 5 G/DL
ALKALINE PHOSPHATASE [4]: 591 u/L
ASPARTATE AMINOTRANSFERASE [4]: 173 u/L
BLOOD UREA NITROGEN [4]: 15.33 mg/dL
CARBON DIOXIDE [4]: 35 mmol/L
CHLORIDE [4]: 101.67 MEQ/L
CHOLESTEROL [4]: 56.67 mg/dL
CREATINE PHOSPHOKINASE [4]: 895.67 u/L
CREATININE [4]: 0.17 mg/dL
GLUCOSE [4]: 139.67 mg/dL
LACTATE DEHYDROGENASE [4]: 272.67 u/L
LIPASE [4]: 9 u/L
PHOSPHORUS [4]: 11.73 mg/dL
POTASSIUM [4]: 6.36 MEQ/L
SODIUM [4]: 146.87 MEQ/L
TOTAL BILIRUBIN [4]: 0.0667 mg/dL
TOTAL PROTEIN [4]: 6.1 G/DL
URIC ACID [4]: 1.1 mg/dL
